In patent publication US20020012721A1, “Cooked cereal ingredient-containing products fortified with non-ferric edta and insoluble iron compositions and methods for use” (priority 1998, published 2002):

Assays:
[1] = Iron absorption from fortified corn flakes with milk in women, from radioactivity in circulating erythrocytes; assay type: in vivo; conditions: 30 g corn flakes with 150 ml milk, percent iron absorbed normalized by reference dose of ferrous ascorbate
Experimental: An experiment was conducted to validate the effectiveness of combining reduced iron with a non-ferric EDTA salt. Six sources of iron were compared in a study conducted on women.
The study was performed using a serving of corn flakes, approximately 30 g, with the addition of 150 ml lactose free UHT-treated 2% fat cow's milk. The percentage of iron absorbed by the test subjects was determined from radioactivity present in the circulating erythrocytes. Labeled ^59FeCl3 was used as a tracer in the reference dose of ferrous ascorbate and in the treatments containing FeSO4. Labeled ^55FeCl3 was used as a tracer in the treatments containing elemental reduced iron. The percentage of iron absorbed by the test subjects was normalized by the reference dose of ferrous ascorbate.

[2] = Rat hemoglobin repletion method: iron bioavailability of iron phosphate alone or with Na2EDTA versus FeSO4 in rat diet/Corn Flakes; assay type: in vivo, Sprague Dawley rats; conditions: rats; for Percent Absorption Relative to FeSO4: calculated from the slopes; for Slope: hemoglobin gain versus diet iron concentration, common intercept, letters mark estimates that do not differ (P < .10)
Experimental: An additional study was performed to determine the bioavailability of iron phosphate when combined with Na2EDTA. The relative iron bioavailability of the various iron containing compositions in a ready-to-eat cereal product was assayed using a widely accepted method, commonly referred to as the rat hemoglobin repletion method, (modified AOAC method for assessment of relative iron bioavailability), see Williams, S. ed. Official methods of analysis of the Association of Official Analytical Chemists, 14th ed. Arlington, Va. AOAC, 1984; Fritz, J. C. et al., Collaborative Study of rat hemoglobin repletion test for bioavailability of iron, AOAC 1974, 57:513-517. Relative bioavailability of the various iron:EDTA composition was carried out in a series of separate experiments. In each of these experiments, ferrous sulfate was used as the standard or control compound.
Sprague Dawley rats, individually housed in temperature and light controlled units, were fed an iron deficient diet obtained from Harland Tekland Laboratories for 24 days. After this iron depletion phase, the rats were weighed and blood was drawn to test for baseline hemoglobin concentrations. These anemic animals, with hemoglobin levels between […], were then randomly assigned to the control and test groups. Ferrous sulfate, iron phosphate, and iron phosphate with Na2EDTA were separately added to the test diets to achieve concentrations of 6 and 18 and 24 mg iron/kg diet. These diets were then fed to groups of ten animals, ad libitum, for 14 days. Iron levels in the diets, were verified by atomic absorption spectrometry (Blin et al., J. Assoc. Off. Anal. Chem. 1977, 60:1170-1174). After the 14-day test period, hemoglobin concentrations were determined for all animals.
The iron bioavailability of each iron source, assayed relative to ferrous sulfate, was calculated using the slope ratio procedure by comparing the gain in hemoglobin concentration with the iron concentration in the diet (Finney, D. J., Statistical methods in biological assay.2nd ed. 1964; Amine et L., Biological assessment of available iron in food products, J. Agric. Food Chem. 1974, 22:470-476). […] The percent absorption relative to FeSO4 was calculated from the slopes determined from each experiment.
An additional test was conducted feeding rats a purified rat diet/Corn Flakes® fortified with iron phosphate either alone or in combination with Na2EDTA or mixtures of both. […] As described above the bioavailability was determined by assaying the relative change in hemoglobin in rats fed with the various fortified diets with the recommended daily allowance for humans of iron content (RDA).
Three test diets were evaluated: […]

| Normalized Absorption ([1]; 25% Daily Value iron) | Percent Absorption Relative to FeSO4 [2] | Slope [2] | Normalized Absorption ([1]; 50% Daily Value iron) | Structure (SMILES) |
| --- | --- | --- | --- | --- |
| 11.4% | 100% | 0.30 (c) |  | O=S(=O)([O-])[O-].[Fe+2] [(a) FeSO4, FeSO4] |
|  |  |  | 6.9% | O=S(=O)([O-])[O-].[Fe+2] [(b) FeSO4, FeSO4] |
|  | 33% | 0.10 (a) |  | O=P([O-])([O-])[O-].[Fe+3] [B) FePO4, FePO4] |
